Results taken from patent publication US4517007A, “Phosphoroamide urease inhibitors and urease inhibited urea based fertilizer compositions” (Allied Corporation, priority 1983, dated 1985).

Test system: urease
Experiment: Urease Inhibition Efficacy Test in soil (urea remaining after incubation)
Format: biochemical
Conditions: 800 micrograms test compound and 42.8 mg urea on 20 g air-dry Cazenovia silt loam, pH 7.0; incubated at 25° C. for three days; run in triplicate
Procedure: Efficacy tests were conducted to evaluate the efficacy of representative compounds as urease inhibitors. The inhibition tests were run in a New York soil (Cazenovia silt loam, pH 7.0). Evaluations (run in triplicate) consisted of applying 800 micrograms of the test compound in 5 mL of water and 42.8 mg of urea in 1 mL of water to 20 g of air-dry soil in a glass bottle. The bottle was capped with perforated aluminum foil and incubated at 25° C. for three days prior to extraction with 100 mL of a 2M KCl solution containing 0.5 mg of phenylmercuric acetate. The extracts were then analyzed for remaining urea using an autoanalyzer. Percent inhibition was calculated as [formula] where A is urea recovered from an unincubated sample (urea added to soil and immediately extracted); B is urea recovered from an inhibited sample; and C is urea recovered from the control (uninhibited sample).

SMILES | % Inhibition 40 micrograms per gram Cazenovia soil [%]
NP1(=O)Oc2ccccc2O1 [Experiment 1] | 54
NP(N)(=O)Oc1ccc2c(c1)OP(N)(=O)O2 (stereo not drawn) [Experiment 3] | 21
NP(N)(=O)Oc1cccc2c1OP(N)(=O)O2 (stereo not drawn) [Experiment 2] | 5
